In patent US12233047B2, “Pharmaceutical combination and use thereof” (ASCENTAGE PHARMA (SUZHOU) CO., LTD., priority 2019, dated 2025):
Residue numbers refer to the chain shown, from its start.

Legend:
FLT3 (wild type) = biological target: T1, FLT3 (wild type) (Homo sapiens, UniProt P36888); assay: KINOMEscan kinase binding assay, FLT3 (wild type); conditions: lower % Ctrl = stronger binding
T1 construct: host or cells: T7 phage in E. coli (BL21-derived) or HEK-293
T1 sequence (P36888 27-993): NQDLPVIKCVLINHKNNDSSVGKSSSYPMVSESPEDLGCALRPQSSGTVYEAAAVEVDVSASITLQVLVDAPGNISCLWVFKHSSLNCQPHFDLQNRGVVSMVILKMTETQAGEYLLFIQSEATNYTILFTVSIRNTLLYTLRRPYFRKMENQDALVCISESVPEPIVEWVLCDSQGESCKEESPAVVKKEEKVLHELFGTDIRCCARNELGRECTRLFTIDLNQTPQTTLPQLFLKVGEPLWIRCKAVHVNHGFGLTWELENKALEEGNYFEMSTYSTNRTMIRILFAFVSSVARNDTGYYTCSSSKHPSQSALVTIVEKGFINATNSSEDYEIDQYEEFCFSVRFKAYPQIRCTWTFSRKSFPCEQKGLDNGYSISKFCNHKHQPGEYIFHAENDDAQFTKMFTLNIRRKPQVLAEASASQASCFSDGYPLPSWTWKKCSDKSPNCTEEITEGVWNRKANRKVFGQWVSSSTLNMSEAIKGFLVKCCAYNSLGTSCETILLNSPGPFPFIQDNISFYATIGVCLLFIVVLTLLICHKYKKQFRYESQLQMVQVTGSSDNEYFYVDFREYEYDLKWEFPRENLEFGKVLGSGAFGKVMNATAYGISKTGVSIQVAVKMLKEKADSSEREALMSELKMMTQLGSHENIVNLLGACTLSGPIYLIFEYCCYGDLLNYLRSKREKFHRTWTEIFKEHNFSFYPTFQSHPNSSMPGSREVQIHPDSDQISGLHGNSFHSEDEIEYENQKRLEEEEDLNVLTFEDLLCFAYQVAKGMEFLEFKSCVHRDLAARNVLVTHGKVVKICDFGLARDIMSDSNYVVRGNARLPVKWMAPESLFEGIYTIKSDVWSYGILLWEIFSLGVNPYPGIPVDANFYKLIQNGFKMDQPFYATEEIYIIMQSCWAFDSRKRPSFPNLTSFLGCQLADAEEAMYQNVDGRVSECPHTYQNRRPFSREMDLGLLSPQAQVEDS
Protocol: (§1) The kinase assay was conducted using KINOMEscan™.
(§2) Kinase-tagged T7 phage strains were grown in parallel in 24-well blocks in an E. coli host derived from the BL21 strain. E. coli were grown to log-phase and infected with T7 phage from a frozen stock (multiplicity of infection=0.4) and incubated with shaking at 32° C. until lysis (90-150 minutes). The lysates were centrifuged (6,000×g) and filtered (0.2 μm) to remove cell debris. The remaining kinases were produced in HEK-293 cells and subsequently tagged with DNA for qPCR detection. Streptavidin-coated magnetic beads were treated with biotinylated small molecule ligands for 30 minutes at room temperature to generate affinity resins for kinase assays. The liganded beads were blocked with excess biotin and washed with blocking buffer (SeaBlock (Pierce), 1% BSA, 0.05% Tween 20, 1 mM DTT) to remove unbound ligand and to reduce non-specific phage binding. Binding reactions were assembled by combining kinases, liganded affinity beads, and test compound (Compound 23) in 1× binding buffer (20% SeaBlock, 0.17×PBS, 0.05% Tween 20, 6 mM DTT). Test compound were prepared as 40× stocks in 100% DMSO and directly diluted into the assay. All reactions were performed in polypropylene 384-well plates in a final volume of 0.04 ml. […] The kinase concentration in the eluates was measured by qPCR. […]

FLT3 (R834Q) = biological target: T2, FLT3 (R834Q) (Homo sapiens, UniProt P36888, R834Q); assay: KINOMEscan kinase binding assay, FLT3 (R834Q)
T2 construct: host or cells: T7 phage in E. coli (BL21-derived) or HEK-293
T2 sequence (P36888 27-993 R834Q): T1 sequence (P36888 27-993) with R808Q
Protocol: as §1, §2

In the case of `Cc1ccc(C(=O)Nc2ccc(CN3CCN(C)CC3)c(C(F)(F)F)c2)cc1C#Cc1cnc2[nH]ncc2c1` [Compound 23, 3-(2-(1H-pyrazolo[3,4-b]pyridin-5-yl)ethynyl)-4-methyl-N-(4-((4-methylpiperazin-1-yl)methyl)-3-(trifluoromethyl)phenyl)benzamide], the “% Ctrl@10 nM” value (FLT3 (wild type); 10 nM) is reported as 2.4 % Ctrl, the “% Ctrl@100 nM” value (FLT3 (wild type); 100 nM) is reported as 0.75 % Ctrl and the “% Ctrl@10 nM” value (FLT3 (R834Q); 10 nM) is reported as 23 % Ctrl. The “% Ctrl@100 nM” value (FLT3 (R834Q); 100 nM) was 15 % Ctrl.
